The source of these data is ChEMBL document CHEMBL1130894, “Discovery of a novel benzyloxyisoquinoline derivative with potent anti-Helicobacter pylori activity” (1998).

Molecules are shown by their SMILES. ≈ marks a conversion by molar mass, not a printed value.

Assay type in all cases: functional
The test system of assay [1] is Helicobacter pylori. The experiment in a line: Antibacterial activity was evaluated against Helicobacter pylori (9005).
In assay [2] the test system is Helicobacter pylori. The experiment in a line: Antibacterial activity was evaluated against Helicobacter pylori (13001).
Assay [3] has as its system Helicobacter pylori. The experiment in a line: Antibacterial activity was evaluated against Helicobacter pylori (FP1757).
Assay [4] concerns Helicobacter pylori. The experiment in a line: Antibacterial activity was evaluated against Helicobacter pylori (8007).
Another assay deals with Enterococcus faecalis. The experiment in a line: Antibacterial activity was evaluated against Enterococcus faecalis (0115).
For the next assay, the system named is Serratia marcescens. The experiment in a line: Antibacterial activity was evaluated against Serratia marcescens (3013).
Another assay deals with Moraxella catarrhalis. The experiment in a line: Antibacterial activity was evaluated against M.(B).catarrhalis (6014).
Another assay concerns Staphylococcus aureus. The experiment in a line: Antibacterial activity was evaluated against Staphylococcus aureus (209P JC-1).
The next assay has as its system Escherichia coli. The experiment in a line: Antibacterial activity was evaluated against Escherichia coli (NIHJ JC-2).

For the compound `Nc1ccc(Cl)c(COc2cccc3cnccc23)c1Cl`, the MIC with Helicobacter pylori [1], in the assay on Helicobacter pylori [2], in the assay on Helicobacter pylori [3] and with Helicobacter pylori [4] was 0.78 µg/mL (≈ 2.44 µM) throughout.

For `CC(=O)Nc1ccc(Cl)c(COc2cccc3cnccc23)c1Cl`, the MIC – broadly, the least concentration at which growth counts as inhibited – against Enterococcus faecalis was above 100 µg/mL; against Helicobacter pylori [1], 0.05 µg/mL (≈ 0.138 µM); against Helicobacter pylori [2], 0.025 µg/mL (≈ 0.0692 µM); against Serratia marcescens, above 100 µg/mL; in the assay with Moraxella catarrhalis, above 100 µg/mL; with Staphylococcus aureus, above 100 µg/mL. For the same compound, the MIC in the assay on Escherichia coli is above 100 µg/mL; with Helicobacter pylori [3], 0.0125 µg/mL (≈ 0.0346 µM); in the assay with Helicobacter pylori [4] it was 0.025 µg/mL (≈ 0.0692 µM).

On to `CC(=O)Nc1cc(Cl)cc(COc2cccc3cnccc23)c1Cl`, for which the MIC in the assay on Helicobacter pylori [1] was found to be 0.39 µg/mL (≈ 1.08 µM); in the assay with Helicobacter pylori [2], 0.2 µg/mL (≈ 0.554 µM); with Helicobacter pylori [3] it was 0.39 µg/mL (≈ 1.08 µM); in the assay with Helicobacter pylori [4], 0.39 µg/mL (≈ 1.08 µM).

As to `CC(=O)Nc1c(Cl)ccc(Cl)c1COc1cccc2cnccc12`, the MIC in the assay with Helicobacter pylori [1], in the assay with Helicobacter pylori [2], against Helicobacter pylori [3] and with Helicobacter pylori [4] was at least 12.5 µg/mL throughout.

For `c1cc(OCc2cccc3nonc23)c2ccncc2c1`, the MIC against Helicobacter pylori [1] stood at 0.78 µg/mL (≈ 2.81 µM); with Helicobacter pylori [2], 0.2 µg/mL (≈ 0.721 µM); against Helicobacter pylori [3] it was 0.78 µg/mL (≈ 2.81 µM); in the assay on Helicobacter pylori [4], 0.39 µg/mL (≈ 1.41 µM).

With `Clc1cccc(Cl)c1COc1cccc2cnccc12`, the MIC in the assay on Helicobacter pylori [1] came out at 1.56 µg/mL (≈ 5.13 µM); against Helicobacter pylori [2] it was 0.78 µg/mL (≈ 2.56 µM); against Helicobacter pylori [3], 0.78 µg/mL (≈ 2.56 µM); in the assay with Helicobacter pylori [4], 0.78 µg/mL (≈ 2.56 µM).

Regarding `Nc1ccc(Cl)c(COc2cccc3cnccc23)c1`, the MIC in the assay on Helicobacter pylori [1], in the assay on Helicobacter pylori [2], against Helicobacter pylori [3] and in the assay with Helicobacter pylori [4] was 0.39 µg/mL (≈ 1.37 µM) throughout.

As for `CC(=O)Nc1ccc(Cl)c(COc2cccc3cnccc23)c1`, the MIC was found to be 0.78 µg/mL (≈ 2.39 µM) in the assay with Helicobacter pylori [1], 0.78 µg/mL (≈ 2.39 µM) in the assay with Helicobacter pylori [2], 1.56 µg/mL (≈ 4.77 µM) against Helicobacter pylori [3] and 0.78 µg/mL (≈ 2.39 µM) against Helicobacter pylori [4].

Consider `c1ccc(COc2cccc3cnccc23)cc1`, for which the MIC against Helicobacter pylori [1] is 1.56 µg/mL (≈ 6.63 µM); in the assay on Helicobacter pylori [2] it was 0.78 µg/mL (≈ 3.32 µM); with Helicobacter pylori [3], 1.56 µg/mL (≈ 6.63 µM); against Helicobacter pylori [4], 1.56 µg/mL (≈ 6.63 µM).

As for `O=[N+]([O-])c1ccc(Cl)c(COc2cccc3cnccc23)c1Cl`, the MIC in the assay on Helicobacter pylori [1], with Helicobacter pylori [2], against Helicobacter pylori [3] and with Helicobacter pylori [4] was 1.56 µg/mL (≈ 4.47 µM) each time.

Turning to `Nc1cccc(COc2cccc3cnccc23)c1`, the MIC turned out to be 1.56 µg/mL (≈ 6.23 µM) with Helicobacter pylori [1], 0.78 µg/mL (≈ 3.12 µM) in the assay with Helicobacter pylori [2], 1.56 µg/mL (≈ 6.23 µM) against Helicobacter pylori [3] and 1.56 µg/mL (≈ 6.23 µM) in the assay on Helicobacter pylori [4].

For the compound `Oc1cccc2cnccc12`, the MIC came out at 50 µg/mL (≈ 344 µM) in the assay with Helicobacter pylori [1], 25 µg/mL (≈ 172 µM) against Helicobacter pylori [2], 50 µg/mL (≈ 344 µM) in the assay on Helicobacter pylori [3] and 25 µg/mL (≈ 172 µM) with Helicobacter pylori [4].

For `Nc1cccc(COc2cccc3cnccc23)c1Cl`, the minimal inhibitory concentration (MIC) against Helicobacter pylori [1] is 0.39 µg/mL (≈ 1.37 µM); in the assay with Helicobacter pylori [2], 0.2 µg/mL (≈ 0.702 µM); in the assay with Helicobacter pylori [3], 0.78 µg/mL (≈ 2.74 µM); with Helicobacter pylori [4], 0.39 µg/mL (≈ 1.37 µM).

In the case of `CC(=O)Nc1cccc(COc2cccc3cnccc23)c1Cl`, the MIC in the assay with Helicobacter pylori [1], in the assay on Helicobacter pylori [2], in the assay on Helicobacter pylori [3] and in the assay on Helicobacter pylori [4] was 0.39 µg/mL (≈ 1.19 µM) throughout.

As for `CC(=O)Nc1cccc(COc2cccc3cnccc23)c1`, the MIC in the assay on Helicobacter pylori [1] came to 0.78 µg/mL (≈ 2.67 µM); against Helicobacter pylori [2], 0.78 µg/mL (≈ 2.67 µM); against Helicobacter pylori [3] it was 1.56 µg/mL (≈ 5.34 µM); against Helicobacter pylori [4] it was 0.78 µg/mL (≈ 2.67 µM).

`CC1(C)S[C@@H]2[C@H](NC(=O)[C@H](N)c3ccc(O)cc3)C(=O)N2[C@H]1C(=O)O` [AMOXICILLIN]: the MIC is 0.39 µg/mL (≈ 1.07 µM) in the assay with Enterococcus faecalis; 0.1 µg/mL (≈ 0.274 µM) against Helicobacter pylori [1]; 0.025 µg/mL (≈ 0.0684 µM) in the assay on Helicobacter pylori [2]; above 100 µg/mL in the assay on Serratia marcescens; 0.39 µg/mL (≈ 1.07 µM) against Moraxella catarrhalis; 0.05 µg/mL (≈ 0.137 µM) in the assay with Staphylococcus aureus. Besides, the MIC against Escherichia coli is 3.13 µg/mL (≈ 8.57 µM); with Helicobacter pylori [3], 0.025 µg/mL (≈ 0.0684 µM); with Helicobacter pylori [4] it was 0.1 µg/mL (≈ 0.274 µM).

As to `CC[C@H]1OC(=O)[C@H](C)[C@@H](O[C@H]2C[C@@](C)(OC)[C@@H](O)[C@H](C)O2)[C@H](C)[C@@H](O[C@@H]2O[C@H](C)C[C@H](N(C)C)[C@H]2O)[C@](C)(OC)C[C@@H](C)C(=O)[C@H](C)[C@@H](O)[C@]1(C)O` [CLARITHROMYCIN], the MIC with Enterococcus faecalis is 0.2 µg/mL (≈ 0.267 µM); in the assay with Helicobacter pylori [1], 0.1 µg/mL (≈ 0.134 µM); against Helicobacter pylori [2] it was 0.05 µg/mL (≈ 0.0668 µM); with Serratia marcescens it was 100 µg/mL (≈ 134 µM); with Moraxella catarrhalis it was below 0.025 µg/mL; in the assay on Staphylococcus aureus, 0.1 µg/mL (≈ 0.134 µM). The MIC with Escherichia coli stood at 100 µg/mL (≈ 134 µM); against Helicobacter pylori [3], 0.05 µg/mL (≈ 0.0668 µM); against Helicobacter pylori [4], 0.05 µg/mL (≈ 0.0668 µM).
